Experimental findings from PubChem BioAssay (NCI) are described below.

Among the test systems are A498 renal; COLO 205 colon; HL-60(TB) leukemia; HS 578T breast; NCI-H23 lung; SF-539 CNS; SK-OV-3 ovarian; UACC-62 melanoma.
Holding throughout (assay): inhibition of tumour cell growth, NCI panel, 48 h

The structures appear in SMILES notation.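 Where inhibition never reached the appropriate level, the endpoint shown equals the highest concentration tested. Otherwise, values were interpolated linearly from a five-concentration, 48-hour dose response in 96-well plates. Here, GI50 denotes the concentration required for 50% inhibition of growth. Definition used: TGI = concentration required for complete inhibition of growth.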 Some results are limits rather than exact numbers.

As to `O=C1Nc2ccc(O)cc2/C1=C\c1ccncc1`, the GI50 with A498 renal is 30.5 µM; in the test on COLO 205 colon, 26.3 µM; with HL-60(TB) leukemia, 36 µM; in the test with HS 578T breast, 29.2 µM; with NCI-H23 lung it was 25.1 µM; in the test on SF-539 CNS it was 6.11 µM. Besides, the GI50 with SK-OV-3 ovarian is 58.9 µM; with UACC-62 melanoma, 12.2 µM. Moreover, the TGI with A498 renal was 49.9 µM; with COLO 205 colon, 64.8 µM; in the test on HL-60(TB) leukemia it was over 100 µM; with HS 578T breast it was 97.3 µM; in the test with NCI-H23 lung it was 62.4 µM; in the test on SF-539 CNS, 23.1 µM. Also, the TGI is over 100 µM with SK-OV-3 ovarian and 26.4 µM in the test with UACC-62 melanoma.
Consider `CCC(CC)c1cc(N[C@H]2CC[C@H](N)C2)n2nccc2n1`, for which the GI50 in the test with A498 renal was 2.53 µM; with COLO 205 colon, 0.732 µM; with HL-60(TB) leukemia, 0.324 µM; in the test with HS 578T breast it was 2.27 µM; with NCI-H23 lung it was 2.2 µM; with SF-539 CNS, 1 µM. Moreover, the GI50 is 3.44 µM in the test with SK-OV-3 ovarian and 1.45 µM in the test on UACC-62 melanoma. Moreover, the TGI was over 100 µM with A498 renal; 2.41 µM in the test with COLO 205 colon; 14.9 µM with HL-60(TB) leukemia; 9.44 µM in the test on HS 578T breast; 8.29 µM in the test with NCI-H23 lung; 5.07 µM in the test with SF-539 CNS. Further, the TGI in the test on SK-OV-3 ovarian was over 100 µM; in the test with UACC-62 melanoma, 3.46 µM.
For the compound `CCOC(=O)Nc1ccc2nc(N3CCCCCC3)sc2c1`, the GI50 is 2.1 µM with A498 renal; 1.35 µM with COLO 205 colon; 0.436 µM in the test on HL-60(TB) leukemia; 4.53 µM in the test with HS 578T breast; 7.95 µM in the test with NCI-H23 lung; 1.59 µM in the test on SF-539 CNS. The GI50 is 2.36 µM in the test with SK-OV-3 ovarian and 1.45 µM in the test with UACC-62 melanoma. Further, the TGI is 32.2 µM in the test with A498 renal; over 59 µM with COLO 205 colon; 21 µM in the test with HL-60(TB) leukemia; over 100 µM in the test with HS 578T breast; over 100 µM in the test on NCI-H23 lung; over 27.4 µM in the test on SF-539 CNS. Further, the values for the TGI with SK-OV-3 ovarian and in the test with UACC-62 melanoma were over 72.8 µM and over 100 µM, respectively.
As to `O=C(NCCCl)NCCN1c2nc3ccccc3cc2Sc2cc3ccccc3nc21`, the GI50 is 4.58 µM in the test with A498 renal; 1.32 µM with COLO 205 colon; 1.71 µM in the test on HL-60(TB) leukemia; 0.962 µM in the test on HS 578T breast; 1.43 µM in the test with NCI-H23 lung; 3.14 µM in the test on SF-539 CNS. The GI50 in the test with SK-OV-3 ovarian was 4.41 µM; in the test on UACC-62 melanoma, 1.62 µM. The TGI with A498 renal was 24.7 µM; in the test on COLO 205 colon, 2.66 µM; in the test with HL-60(TB) leukemia, 5.12 µM; in the test on HS 578T breast, 9.57 µM; in the test with NCI-H23 lung, over 45.6 µM; with SF-539 CNS, 17.7 µM. In addition, the TGI with SK-OV-3 ovarian is over 44.3 µM; with UACC-62 melanoma it was 18.2 µM.
Take `O=C(/C=C\c1cc(Br)ccc1O)/C=C/c1cc(Br)ccc1O`: the GI50 was 1.65 µM in the test on A498 renal; 1.55 µM in the test on COLO 205 colon; 0.385 µM with HL-60(TB) leukemia; 1.25 µM with HS 578T breast; 0.87 µM in the test on NCI-H23 lung; 1.47 µM in the test with SF-539 CNS. The values for the GI50 in the test with SK-OV-3 ovarian and in the test with UACC-62 melanoma were 4.41 µM and 0.429 µM, respectively. In addition, the TGI was 3.26 µM with A498 renal; 3.69 µM in the test on COLO 205 colon; 4.26 µM in the test on HL-60(TB) leukemia; 39.2 µM in the test with HS 578T breast; 2.68 µM with NCI-H23 lung; 3.35 µM in the test with SF-539 CNS. Moreover, the TGI in the test with SK-OV-3 ovarian is 12.3 µM; in the test on UACC-62 melanoma it was 1.8 µM.
Turning to `C=C1C(=O)O[C@@H]2C[C@@H]1CC[C@]1(C)O[C@H]1CC/C(C)=C/CC[C@@]2(C)O`, the GI50 in the test with A498 renal was 23.3 µM; with COLO 205 colon, 18.1 µM; in the test on HS 578T breast, 21.7 µM; with NCI-H23 lung it was 20.9 µM; in the test with SF-539 CNS, 16.5 µM; with SK-OV-3 ovarian it was 25.5 µM. The GI50 with UACC-62 melanoma was 17.5 µM. In addition, the TGI with A498 renal came to 74.5 µM; in the test on COLO 205 colon, 34.8 µM; in the test with HS 578T breast it was 68.5 µM; with NCI-H23 lung, 58.4 µM; with SF-539 CNS it was 34.5 µM; with SK-OV-3 ovarian, 64 µM. The compound also had a TGI with UACC-62 melanoma of 36.4 µM.
For `Cc1cc2c(C(=O)NCC#N)cccc2n1-c1nc2c(c(NCc3ccccc3)n1)CCCC2`, the GI50 in the test with COLO 205 colon was 0.201 µM; in the test on HL-60(TB) leukemia, 0.311 µM; with HS 578T breast it was 0.386 µM; with NCI-H23 lung it was 0.285 µM; with SF-539 CNS, 0.249 µM; in the test on SK-OV-3 ovarian, 0.431 µM. Also, in the test with UACC-62 melanoma, the GI50 was 0.203 µM. The TGI in the test on COLO 205 colon was 0.404 µM; in the test on HL-60(TB) leukemia, over 100 µM; in the test with HS 578T breast, 47.5 µM; in the test on NCI-H23 lung, 1.19 µM; in the test with SF-539 CNS, 0.764 µM; with SK-OV-3 ovarian it was 2.78 µM. The compound also displayed a TGI with UACC-62 melanoma of 0.482 µM.
In the case of `c1ccc(COCC[P+](c2ccccc2)(c2ccccc2)c2ccccc2)cc1`, the GI50 is 1.33 µM with A498 renal; 0.868 µM in the test with COLO 205 colon; 0.29 µM in the test with HL-60(TB) leukemia; 2.81 µM with HS 578T breast; 0.664 µM in the test with NCI-H23 lung; 2.4 µM with SF-539 CNS. The GI50 in the test with SK-OV-3 ovarian was 2.33 µM. Further, the TGI in the test with A498 renal was found to be 5.93 µM; in the test on COLO 205 colon, 3.65 µM; with HL-60(TB) leukemia it was 1.39 µM; in the test on HS 578T breast it was 17.9 µM; with NCI-H23 lung, 6.75 µM; with SF-539 CNS, 14.5 µM. Moreover, in the test with SK-OV-3 ovarian, the TGI came out at 9.93 µM.
As for `C/C=C(\C)c1cc(=O)c2c(C)cc3c(c2o1)C(OC)(OC(C)=O)c1c(O)c(C2CC(C)(N(C)C)C(OC(C)=O)C(C)O2)cc(C2CC(N(C)C)C(OC(C)=O)C(C)O2)c1C3=O` (stereo unspecified), the TGI in the test with A498 renal is 3.49 µM; with HS 578T breast, 7.63 µM; in the test with NCI-H23 lung, 2.42 µM; in the test on SK-OV-3 ovarian, 8.59 µM.
On to `COc1cccc(CCNC(=O)CC(c2ccccc2)(c2ccccc2)c2ccccc2)c1`, for which the GI50 in the test with COLO 205 colon is 12.8 µM; in the test with HL-60(TB) leukemia it was 17.5 µM; with HS 578T breast it was over 100 µM; in the test on SK-OV-3 ovarian, over 100 µM; in the test with UACC-62 melanoma it was 0.613 µM. The TGI in the test on COLO 205 colon, in the test with HL-60(TB) leukemia, with HS 578T breast, in the test on SK-OV-3 ovarian and with UACC-62 melanoma was over 100 µM each time.
